{
  "source": "the supplement of paper PMC9663587",
  "key": {"[1]": {"compound": "Cc1nc(Nc2ncc(C(=O)Nc3c(C)cccc3Cl)s2)cc(N2CCN(CCO)CC2)n1 [Dasatinib]"}, "[2]": {"compound": "CC(=O)c1c(C)c2cnc(Nc3ccc(N4CCNCC4)cn3)nc2n(C2CCCC2)c1=O"}, "[3]": {"compound": "O=C(CCCCCCC(=O)Nc1ccccc1)NO [Vorinostat]"}, "[4]": {"compound": "Cc1nc(-c2cn3c(n2)-c2ccc(-c4cnn(C(C)(C)C(N)=O)c4)cc2OCC3)n(C(C)C)n1 [Taselisib/GDC0032]"}, "[5]": {"compound": "CC[C@@H]1C(=O)N(C)c2cnc(Nc3ccc(C(=O)N[C@H]4CC[C@H](N5CCN(CC6CC6)CC5)CC4)cc3OC)nc2N1C(C)C [Volasertib/BI6727]"}, "[6]": {"compound": "T1, CCOc1cc2ncc(C#N)c(Nc3ccc(OCc4ccccn4)c(Cl)c3)c2cc1NC(=O)/C=C/CN(C)C [Neratinib/HKI272]"}, "[7]": {"compound": "COc1cccc2c1C(=O)c1c(O)c3c(c(O)c1C2=O)C[C@@](O)(C(=O)CO)C[C@@H]3O[C@H]1C[C@H](N)[C@H](O)[C@H](C)O1 [Doxorubicin]"}, "[8]": {"compound": "CC(=O)Nc1cccc(-n2c(=O)n(C3CC3)c(=O)c3c(Nc4ccc(I)cc4F)n(C)c(=O)c(C)c32)c1"}, "[9]": {"compound": "CC(C)n1nc(-c2ccc3oc(N)nc3c2)c2c(N)ncnc21 [INK128/MLN0128]"}, "[10]": {"compound": "Cc1cc(Nc2ncc(Cl)c(Nc3ccccc3S(=O)(=O)C(C)C)n2)c(OC(C)C)cc1C1CCNCC1 [Ceritinib/LDK378]"}, "[11]": {"compound": "T1, Neratinib/HKI272", "assay": "increase in dead-cell fraction, 72 h; higher = more death;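 also: breast cancer cell lines in 384-well plates, stained with Hoechst plus LIVE/DEAD far red dye and imaged, cells above an LDR intensity threshold counted dead, Hoechst-negative corpses included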"}, "[12]": {"compound": "CCc1cnn2c(NCc3ccc[n+]([O-])c3)cc(N3CCCC[C@H]3CCO)nc12", "assay": "increase in dead-cell fraction, 72 h; higher = more death"}},
  "data": [
    {"cell line": "MDAMB157", "values": [
      {"measurement": "GR50, 72 h", "setting": "[1]", "result": 0.0605, "unit": "µM"},
      {"measurement": "GR50, 72 h", "setting": "[2]", "result": "> 3.16", "unit": "µM"},
      {"measurement": "GR50, 72 h", "setting": "[3]", "result": 1.1, "unit": "µM"},
      {"measurement": "GR50, 72 h", "setting": "[4]", "result": 1.36, "unit": "µM"},
      {"measurement": "GR50, 72 h", "setting": "[5]", "result": 0.00692, "unit": "µM"},
      {"measurement": "GR50, 72 h", "setting": "[6]", "result": 0.796, "unit": "µM"},
      {"measurement": "GR50, 72 h", "setting": "[7]", "result": 0.00323, "unit": "µM"},
      {"measurement": "GR50, 72 h", "setting": "[8]", "result": 0.111, "unit": "µM"},
      {"measurement": "GR50, 72 h", "setting": "[9]", "result": 0.0318, "unit": "µM"},
      {"measurement": "GR50, 72 h", "setting": "[10]", "result": 0.484, "unit": "µM"},
      {"measurement": "increase in dead-cell fraction", "setting": "[11]; 0.0003162 µM", "result": 0.0012},
      {"measurement": "increase in dead-cell fraction", "setting": "[11]; 0.001 µM", "result": 0.0066},
      {"measurement": "increase in dead-cell fraction", "setting": "[11]; 0.003162 µM", "result": 0.004},
      {"measurement": "increase in dead-cell fraction", "setting": "[11]; 0.01 µM", "result": -0.0008},
      {"measurement": "increase in dead-cell fraction", "setting": "[11]; 0.03162 µM", "result": 0.0016},
      {"measurement": "increase in dead-cell fraction", "setting": "[11]; 0.1 µM", "result": -0.0006},
      {"measurement": "increase in dead-cell fraction", "setting": "[11]; 0.3162 µM", "result": 0.0073},
      {"measurement": "increase in dead-cell fraction", "setting": "[11]; 1 µM", "result": -0.0005},
      {"measurement": "increase in dead-cell fraction", "setting": "[11]; 3.162 µM", "result": 0.032},
      {"measurement": "increase in dead-cell fraction", "setting": "[12]; 0.0001 µM", "result": 0},
      {"measurement": "increase in dead-cell fraction", "setting": "[12]; 0.0003162 µM", "result": -0.0024},
      {"measurement": "increase in dead-cell fraction", "setting": "[12]; 0.001 µM", "result": 0.0008},
      {"measurement": "increase in dead-cell fraction", "setting": "[12]; 0.003162 µM", "result": 0.0027},
      {"measurement": "increase in dead-cell fraction", "setting": "[12]; 0.01 µM", "result": 0.028},
      {"measurement": "increase in dead-cell fraction", "setting": "[12]; 0.03162 µM", "result": 0.41},
      {"measurement": "increase in dead-cell fraction", "setting": "[12]; 0.1 µM", "result": 0.781},
      {"measurement": "increase in dead-cell fraction", "setting": "[12]; 0.3162 µM", "result": 0.834},
      {"measurement": "increase in dead-cell fraction", "setting": "[12]; 1 µM", "result": 0.851}
    ]}
  ]
}
